Data reported in patent US11950611B2, “Highly soluble Rebaudioside D” (PURECIRCLE SDN BHD, priority 2013, dated 2024).

Experiments:
[1] = cited from earlier work
[2] = room temperature, water; cited from earlier work
[3] = Solubility of Rebaudioside D (crystalline vs amorphous) in water; assay type: physicochemical; details: for water solubility: room temperature, g per 100 g solvent
Protocol: Hereinafter, unless specified otherwise the solubility of material is determined in RO (reverse osmosis) water at room temperature. […] The solution was maintained at 50° C. and dried using a YC-015 laboratory spray drier (Shanghai Pilotech Instrument & Equipment Co. Ltd., China) operating at 175° C. inlet and 100° C. outlet temperatures.

water solubility [3] [%]	SMILES	Rate of dissolution in H2O at 25° C. (in words) [1]	Rate of dissolution in H2O at 25° C., amount dissolved in 5 minutes [1]	further results
	C=C1C[C@@]23CC[C@H]4[C@@](C)(CCC[C@@]4(C)C(=O)O[C@@H]4O[C@H](CO)[C@@H](O)[C@H](O)[C@H]4O)[C@@H]2CC[C@]1(O[C@@H]1O[C@H](CO)[C@@H](O)[C@H](O[C@@H]2O[C@H](CO)[C@@H](O)[C@H](O)[C@H]2O)[C@H]1O[C@@H]1O[C@H](CO)[C@@H](O)[C@H](O)[C@H]1O)C3 [Form 1, Rebaudioside A]	Very low		Rate of dissolution in H2O at 25° C., amount dissolved in 60 minutes ([1]; in 60 minutes): (<0.2% in 60
	C=C1C[C@@]23CC[C@H]4[C@@](C)(CCC[C@@]4(C)C(=O)O[C@@H]4O[C@H](CO)[C@@H](O)[C@H](O)[C@H]4O)[C@@H]2CC[C@]1(O[C@@H]1O[C@H](CO)[C@@H](O)[C@H](O[C@@H]2O[C@H](CO)[C@@H](O)[C@H](O)[C@H]2O)[C@H]1O[C@@H]1O[C@H](CO)[C@@H](O)[C@H](O)[C@H]1O)C3 [Form 2, Rebaudioside A]	Intermediate	(<30% in 5	
	C=C1C[C@@]23CC[C@H]4[C@@](C)(CCC[C@@]4(C)C(=O)O[C@@H]4O[C@H](CO)[C@@H](O)[C@H](O)[C@H]4O)[C@@H]2CC[C@]1(O[C@@H]1O[C@H](CO)[C@@H](O)[C@H](O[C@@H]2O[C@H](CO)[C@@H](O)[C@H](O)[C@H]2O)[C@H]1O[C@@H]1O[C@H](CO)[C@@H](O)[C@H](O)[C@H]1O)C3 [Form 3, Rebaudioside A]	High	(>30% in 5	
	C=C1C[C@@]23CC[C@H]4[C@@](C)(CCC[C@@]4(C)C(=O)O[C@@H]4O[C@H](CO)[C@@H](O)[C@H](O)[C@H]4O)[C@@H]2CC[C@]1(O[C@@H]1O[C@H](CO)[C@@H](O)[C@H](O[C@@H]2O[C@H](CO)[C@@H](O)[C@H](O)[C@H]2O)[C@H]1O[C@@H]1O[C@H](CO)[C@@H](O)[C@H](O)[C@H]1O)C3 [Form 4, Rebaudioside A]	High	(>35% in 5	
	C=C1C[C@@]23CC[C@H]4[C@@](C)(CCC[C@@]4(C)C(=O)O[C@@H]4O[C@H](CO)[C@@H](O)[C@H](O)[C@H]4O)[C@@H]2CC[C@]1(O[C@@H]1O[C@H](CO)[C@@H](O)[C@H](O[C@@H]2O[C@H](CO)[C@@H](O)[C@H](O)[C@H]2O)[C@H]1O[C@@H]1O[C@H](CO)[C@@H](O)[C@H](O)[C@H]1O)C3 [Rebaudioside A]			thermodynamic equilibrium solubility [2]: 0.8%
0.05	C=C1C[C@@]23CC[C@H]4[C@@](C)(CCC[C@@]4(C)C(=O)O[C@@H]4O[C@H](CO)[C@@H](O)[C@H](O)[C@H]4O[C@@H]4O[C@H](CO)[C@@H](O)[C@H](O)[C@H]4O)[C@@H]2CC[C@]1(O[C@@H]1O[C@H](CO)[C@@H](O)[C@H](O[C@@H]2O[C@H](CO)[C@@H](O)[C@H](O)[C@H]2O)[C@H]1O[C@@H]1O[C@H](CO)[C@@H](O)[C@H](O)[C@H]1O)C3 [Rebaudioside D]			water solubility when heat is applied ([3]; heated, upon cooling to room temperature crystallizes back out): up to 0.5%
0.2	C=C1C[C@@]23CC[C@H]4[C@@](C)(CCC[C@@]4(C)C(=O)O[C@@H]4O[C@H](CO)[C@@H](O)[C@H](O)[C@H]4O[C@@H]4O[C@H](CO)[C@@H](O)[C@H](O)[C@H]4O)[C@@H]2CC[C@]1(O[C@@H]1O[C@H](CO)[C@@H](O)[C@H](O[C@@H]2O[C@H](CO)[C@@H](O)[C@H](O)[C@H]2O)[C@H]1O[C@@H]1O[C@H](CO)[C@@H](O)[C@H](O)[C@H]1O)C3 [amorphous Reb D, Rebaudioside D]			
0.05	C=C1C[C@@]23CC[C@H]4[C@@](C)(CCC[C@@]4(C)C(=O)O[C@@H]4O[C@H](CO)[C@@H](O)[C@H](O)[C@H]4O[C@@H]4O[C@H](CO)[C@@H](O)[C@H](O)[C@H]4O)[C@@H]2CC[C@]1(O[C@@H]1O[C@H](CO)[C@@H](O)[C@H](O[C@@H]2O[C@H](CO)[C@@H](O)[C@H](O)[C@H]2O)[C@H]1O[C@@H]1O[C@H](CO)[C@@H](O)[C@H](O)[C@H]1O)C3 [crystalline Rebaudioside D, Rebaudioside D]			Solubility, % (in water) 20° C. ([3]; water, 20° C.): 0.05%; Solubility, % (in water) 50° C.* ([3]; water, 50° C., solution crystallized after cooling to room temperature (20° C.)): 0.2%; Solubility, % (in water) 100° C.* ([3]; water, 100° C., solution crystallized after cooling to room temperature (20° C.)): 0.5%
